Marks after values point to notes of the source that are not given here.
Assays:
Male NMRI mice [1] = assay: Forced swim test; type: in vivo, mouse; conditions: 30 min before test, last 3 min of 6 min swim, vehicle = 100
Procedure: Subjects. Male NMRI mice (Charles River) weighing 23-25 g were used. The mice were kept 8 mice pr cage in a 12-hr light/dark cycle under controlled conditions for regular in-door temperature (21±2° C.) and humidity (55±5%) with food and tap water available ad libitum. 8 mice were used pr experimental group.
Experimental procedure. The mice were placed in 2000 ml beaker containing 1200 ml of tempered water (25° C.) and left to swim for 6 min. The performance of the mice was video recorded, digitalized and analysed by means of a digital analysis system (Bioobserve). The time spent immobile for the last 3 min. of the test session was quantified for each mouse.
Treatment. 30 min. before the test, mice were treated s.c. with N-(2,6-dimethyl-4-morpholin-4-yl-phenyl)-3,3-dimethyl-butyramide or vehicle (10-%-2-OH-propyl-cyclodextrin, 10 ml/kg). In addition as positive control, imipramine-HCl (40 mg/kg) and a saline control (10 ml/kg) was included.
Analyses. The time spent immobile was statistically compared across the experimental groups against the relevant control group by means of one-way analysis of variance. A post-hoc test (Student-Newman-Keuls) was employed when appropriate. P-levels <0.05 were considered significant.

Male Wistar rats = assay: Amphetamine challenge: antagonism of d-amphetamine induced hyperactivity; type: in vivo; conditions: rat; s.c. 30 min before d-amphetamine sulphate 0.5 mg/kg; motility over 2 hours; std. dev. in brackets
Procedure: Subjects. Male Wistar rats (Taconic, Denmark) weighing 170-240 g are used. The animals were housed under a 12-hr light/dark cycle under controlled conditions for regular in-door temperature (21±2° C.) and humidity (55±5%) with food and tap water available ad libitum. Eight rats were used at each dose level and in the parallel control group receiving the vehicle to the test compound plus d-amphetamine and the group receiving vehicle injections only.
Experimental procedure. The experiment was made in normal light conditions in an undisturbed room. The test substance was injected 30 min before s.c. before the injection of d-amphetamine sulphate (0.5 mg/kg). Immediately after injection of d-amphetamine, the rats were placed individually in the test cages that were placed in a U-frame, equipped with 4 infrared light sources and photocells. The light beams crossed the cage 4 cm above the cage floor. Recording of a motility count required interruption of adjacent light beams, thus avoiding counts induced by stationary movements of the rat. Motility (counts) was recorded for a period of 2 hours. The mean motility induced by vehicle (saline) treatment in the absence of d-amphetamine was used as baseline. The 100 percent effect of d-amphetamine was accordingly calculated to be total motility counts minus baseline. The response in groups receiving test compound was thus determined by the total motility counts minus baseline, expressed in percent of the similar result recorded in the parallel amphetamine control group. The percent responses were converted to percent inhibition from which ED50 values were calculated by means of log-probit analyses. In a parallel set of data, the potential sedative properties (motility inhibition) of the test compounds were evaluated using essentially the same procedure with the exception of not administering d-amphetamine-sulphate at the initiation of locomotor assessment.

Male NMRI mice [2] = assay: Amphetamine sensitisation: inhibition of the sensitised behavioural response to amphetamine; type: in vivo, mouse; conditions: Mus musculus; amphetamine-pretreated mice; s.c. 30 min before D-amphetamine challenge 1.25 mg/kg s.c.; 30 min test; S.D. in brackets
Procedure: Subjects. […] The animals were housed 6 mice pr cage in a 12-hr light/dark cycle under controlled conditions for regular in-door temperature (21±2° C.) and humidity (55±5%) with food and tap water available ad libitum.
Experimental procedure. […] 5×8 infrared light sources and photocells interspaced by 4 cm monitor the locomotor activity.
Administration of compounds.
Data analyses. […] A therapeutic index value can subsequently be calculated by dividing the first ED50 by the second.

[3] = test system: DA levels in the nucleus accumbens; assay: Microdialysis: DA levels in the nucleus accumbens of freely moving rats; type: in vivo, rat; conditions: for DA level in the nucleus accumbens, % of baseline: amphetamine 0.5 mg/kg s.c. + compound 5 mg/kg s.c.
Procedure: Subjects. Male Sprague-Dawley rats (Charles River), initially weighing 275-300 g, were used. The animals were housed under a 12-hr light/dark cycle under controlled conditions for regular in-door temperature (21±2° C.) and humidity (55±5%) with food and tap water available ad libitum.
Surgery. Animals were anaesthetized with hypnorm/dormicum (2 ml/kg s.c.) and intracerebral guide cannulas (CMA/12) were stereotaxically implanted, positioning the dialysis probe tip in the nucleus accumbens (co-ordinates: 1.7 mm anterior to bregma, −1.2 mm lateral to bregma, 8.0 mm ventral to the dura). Anchor screws and acrylic cement was applied for fixation of the guide cannula. The body temperature of the animals was maintained at 37° C. by means of a rectal probe and a heating plate. The rats were allowed to recover from surgery for 2 days, housed singly in cages.
Experimental procedure. On the day of the experiment, a microdialysis probe (CMA/12, 0.5 mm diameter, 2 mm length) was inserted through the guide cannula of the conscious animal.
The probes were connected to a microinjection pump via a dual channel swivel which allowed the animals unrestricted movements. Perfusion of the microdialysis probe with filtered Ringer solution (145 mM NaCl, 3 mM KCl, 1 mM MgCl2, 1.2 mM CaCl2) was maintained for the duration of the experiment at a constant flow rate of 1 μL/min. After 180 min of stabilisation, the experiments were initiated. Dialysates were collected every 20 min. After the experiments the rats were sacrificed by decapitation, their brains removed, frozen and sliced for probe placement verification.
Administration of compounds. N-(2,6-dimethyl-4-morpholin-4-yl-phenyl)-3,3-dimethyl-butyramide (5 mg/kg) or vehicle (10% 2-hydroxy-propyl-beta-cyclodextrin, isotonic, pH 5-7) was administered subcutaneously in a volume of 2.5 ml/kg. Thirty min after the first administration dex-amphetamine sulphate (0.5 mg/kg s.c.) was administered.
Analysis of dialvsate. The concentration of dopamine (DA) in the dialysates was assessed by means of HPLC with electrochemicl detection. The dialysate constitutents were separated by reverse phase liquid chromatography (ODS 150×3 mm, […]). Mobile phase consisted of 90 mM NaH2PO4, 50 mM sodium citrate, 367 mg/l sodium 1-octanesulfonic acid, 50 μM EDTA and 8% acetonitrile (pH 4.0) at a flow rate of 0.5 mL/min. Electrochemical detection of DA was accomplished using a coulometric detector; potential set at E1=−75 mV and E2=300 mV (guard cell at 350 mV) (Coulochem II, ESA). The dialysate levels of DA in the three dialyse samples preceding the administration of compound were averaged and used as baseline level of DA (100%).
Statistical analysis. The dialysate levels of DA in the three dialyse samples preceding the administration of compound were averaged and used as baseline level of DA (100%). Data were analysed using repeated measure analyses of variance followed by post hoc tests (Tukey test), when appropriate. *p<0.05 were considered significant.

Cc1cc(N2CCOCC2)cc(C)c1NC(=O)CC(C)(C)C [N-(2,6-dimethyl-4-morpholin-4-yl-phenyl)-3,3-dimethyl-butyramide]
Immobility in % (±S.D.) (Male NMRI mice [1]; dose 1.3 mg/kg): 102%
Immobility in % (±S.D.) (Male NMRI mice [1]; dose 2.5 mg/kg): 96.7%
Immobility in % (±S.D.) (Male NMRI mice [1]; dose 5.0 mg/kg): 82.3%
ED50 (Male Wistar rats): 2.1 mg/kg
ED50 (Male NMRI mice [2]): 1.6 mg/kg
Effect on basal extracellular DA level in the nucleus accumbens ([3]; freely moving rats, data not shown): did not significantly affected
DA level in the nucleus accumbens, % of baseline ([3]; time 0 min (baseline sample)): 91 ± 4 % of baseline
DA level in the nucleus accumbens, % of baseline ([3]; time 20 min): 112 ± 12 % of baseline
DA level in the nucleus accumbens, % of baseline ([3]; time 40 min): 227 ± 46 % of baseline
DA level in the nucleus accumbens, % of baseline ([3]; time 60 min): 262 ± 53* % of baseline
DA level in the nucleus accumbens, % of baseline ([3]; time 80 min): 195 ± 38* % of baseline
DA level in the nucleus accumbens, % of baseline ([3]; time 100 min): 172 ± 24 % of baseline
DA level in the nucleus accumbens, % of baseline ([3]; time 120 min): 166 ± 32 % of baseline
DA level in the nucleus accumbens, % of baseline ([3]; time 140 min): 129 ± 35 % of baseline
DA level in the nucleus accumbens, % of baseline ([3]; time −20 min (baseline sample)): 100 ± 3 % of baseline
DA level in the nucleus accumbens, % of baseline ([3]; time −40 min (baseline sample)): 108 ± 5 % of baseline

Source: patent publication US20120165325A1, “Stable forms of N-(2,6-Dimethyl-4-morpholin-4-yl-phenyl)-3,3-dimethyl-butyramide” (H. Lundbeck A/S, priority 2009, published 2012)
